What all share (assay type): cell-based, mouse
Data set [1] relates to GFP transgene on the inactive X (Xi-TgGFP fibroblasts). Kind of data set: Assay for the reactivation of Xi-TgGFP (GFP RT-qPCR). Conditions: single drug 0.3 μM, shControl. An excerpt: Xi-TgGFP (68-5-11) tail-tip fibroblasts (TTF) were initially derived from a single female pup, a daughter of a cross between aM castaneus male and aM musculus female, homozygous for an X-linked GFP transgene driven by a strong, ubiquitous promoter (58). The fibroblasts were immortalized by SV40 transformation, and clonal lines were derived from individual GFP-negative cells selected by fluorescence-activated cell sorting. In our experience, occasional clones with undetectable GFP expression nevertheless have the transgene located on the active X chromosome.
A cocktail of 3 shRNA viruses were used for infections (Table 2) followed with puromycin selection using standard methodology. In all the experiments, polyclonal knock down cells were used.
RNA was isolated by Trizol twice, with an intermittent TurboDNase treatment after the first isolation for 30 min at 37° C. One μg RNA was used for each of the RT+ and RT− reactions (Superscript III, Invitrogen) followed by the SYBR green qPCR using the primers listed in Table 3, with annealing temperature of 60° C. for 45 cycles. The relative efficiency of Xi-TgGFP reactivations was calculated by comparing to U1 snRNA as the internal control.

Data set [2] can be described thus: Drug concentration relative to IC50 / toxicity in fibroblasts. The note with it: 0.3 μM.
The subject of data set [3] is Mecp2 on the Xi (Mecp2:luciferase fusion). Nature of the data set: Luciferase screen in Mecp2-Luc fusion Xi cell line. Here is the method:
To determine whether an LNA targeting XIST could also be used in addition to or as an alternative to an agent described herein, experiments were performed in the following cells: immortalized monoclonal MEFs with the reporter GFP (Bird) or LUC (Bedalov) fused to Mecp2, on the Xi or Xa, immortalized human fibroblasts from a […] with Rett syndrome (Coriell) and primary mouse cortical neurons.
The LNAs were designed with the Exiqon web tool. Xist LNA for mouse ([…]; SEQ ID NO:50) targets exon 1 between rep C and rep D. The human Xist LNAs target the following sequences: A1: […]; SEQ ID NO:51; A2: […]; SEQ ID NO:52; A3: […]; SEQ ID NO:53. […] 5-azadeoxycitidine (in DMSO) was added to a final concentration of 0.5 μM (except in the titration experiment 0.1-2.5 μM).
Luciferase experiments were performed on a Microbeta2 LumiJet with a luciferase assay system (Promega). […] Afterwards, the cells were trypsinized, washed, and lysed using cell culture lysis reagent. Normalized measurements were performed in 96 well plates, during 10 seconds after a 2 second incubation period.

Where [4] appears, read: trial 1, 20 uM LNA, 0.5 uM aza, 3 days, 1 10^5 cells/ml, 24-well.

For the compound `Nc1ncn([C@@H]2O[C@H](CO)[C@@H](O)[C@H]2O)c(=O)n1` [5′-azacytidine, 4-amino-1-beta-D-ribofuranosyl-s-triazin-2(1H)-one], in data set [1], the “GFP reactivation” value was “minimally reactivated GFP”. For the same compound, in data set [2], the “Toxicity at the concentration used” value was “nontoxic”.
On to `Nc1ncn([C@H]2C[C@H](O)[C@@H](CO)O2)c(=O)n1` [AzadC, 5-aza-2′-deoxycytidine], for which, in data set [3] (added to Xist LNA, 0.5 μM, reporter not specified), the “Reactivation together with Xist LNA” value is reported as “Synergistic reactivation”.
Regarding `COc1cc([C@@H]2c3cc4c(cc3[C@@H](O[C@@H]3O[C@@H]5CO[C@@H](C)O[C@H]5[C@H](O)[C@H]3O)[C@H]3COC(=O)[C@H]23)OCO4)cc(OC)c1O` [etoposide], the “GFP reactivation” value in data set [1] is given as “minimally reactivated GFP”.
As for “xist: Xist LNA for mouse (TCTTGGTTACTAACAG; SEQ ID NO:50), targets exon 1 between rep C and rep D (LNA-modified, pattern not given here)”, in data set [3] (setting [4]), the LCPS stood at 0 and the “raw CPS” value came out at 29.8.
